Source: patent US20260256925A1, “INDAZOLE DERIVATIVES AS ESTROGEN RECEPTOR DEGRADERS” (REGENTS OF THE UNIVERSITY OF MICHIGAN, priority 2022, published 2026)

Legend:
ER = target: T1, ER (Homo sapiens, UniProt P03372); test: In-cell western blot analysis, relative ER percentage (compounds B1-B126); type: cell-based; conditions: ER degradation, 16 hours, read-out: ICW DC50
T1 construct: endogenous in cells; probably T47D or MCF-7
T1 sequence (P03372 1-595): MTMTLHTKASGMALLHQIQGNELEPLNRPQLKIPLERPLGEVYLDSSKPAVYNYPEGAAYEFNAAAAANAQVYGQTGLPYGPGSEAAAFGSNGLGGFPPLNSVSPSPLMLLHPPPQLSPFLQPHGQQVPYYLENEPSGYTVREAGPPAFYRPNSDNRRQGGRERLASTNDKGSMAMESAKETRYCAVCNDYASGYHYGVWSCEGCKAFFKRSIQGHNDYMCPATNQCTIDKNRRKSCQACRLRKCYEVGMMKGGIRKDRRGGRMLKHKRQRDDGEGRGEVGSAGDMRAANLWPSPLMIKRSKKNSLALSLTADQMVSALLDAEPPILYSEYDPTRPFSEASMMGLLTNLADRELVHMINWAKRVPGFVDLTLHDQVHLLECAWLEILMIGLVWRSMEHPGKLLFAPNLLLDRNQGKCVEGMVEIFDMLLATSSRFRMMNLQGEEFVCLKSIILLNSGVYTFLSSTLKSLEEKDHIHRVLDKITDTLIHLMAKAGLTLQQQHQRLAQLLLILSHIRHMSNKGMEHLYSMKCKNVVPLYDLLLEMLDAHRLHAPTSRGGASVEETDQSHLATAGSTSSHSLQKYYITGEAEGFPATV
How it was run: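 Readout was a two-colour infrared in-cell western of formaldehyde-fixed cells after 16 h compound exposure at 0.5% DMSO, with 40,000 or 10,000 cells/well plated the previous night. Relative ER percentage compares treated wells against untreated/DMSO-treated wells taken as 100%.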

[1] = Cell growth assay, WST-8 (compounds B1-B126); type: cell-based; conditions: 96 h; T47D cell line, WST-8, 4 days; read-out: Cell growth inhibition in T47D cell line IC50
How it was run: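 Read-out is WST-8 absorbance at 450 nm (2.5 h, 37° C) as a fraction of vehicle control, from three separate repeats. Compound exposure lasted 4 days, starting one day after plating 1500 cells/well.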

Row | DC50 (ER) [nM] | Structure (SMILES) | IC50 [1] [nM]
1 | < 10 | C[C@@H]1Cc2c(ccc3[nH]ncc23)[C@@H](c2c(F)cc(NC3CC4(C3)CN(CC(=O)N3CCN5c6cc7c(cc6OC[C@@H]5C3)C(=O)N(C3CCC(=O)NC3=O)C7)C4)cc2F)N1CC(F)F (stereo partly drawn) [Compound B42, 3-((S)-3-(2-(6-((4-((6S,8R)-7-(2,2-difluoroethyl)-8-methyl-6,7,8,9-tetrahydro-3H-pyrazolo[4,3-f]isoquinolin-6-yl)-3,5-difluorophenyl)amino)-2-azaspiro[3.3]heptan-2-yl)acetyl)-8-oxo-1,2,3,4,4a,5,8,10-octahydro-9H-pyrazino[1′,2′:4,5][1,4]oxazino[2,3-f]isoindol-9-yl)piperidine-2,6-dione] | < 1
2 | 10 to 100 | C[C@@H]1Cc2c(ccc3[nH]ncc23)[C@@H](c2c(F)cc(C3CCN(C(=O)CN4CCN5c6cc7c(cc6OC[C@@H]5C4)C(=O)N(C4CCC(=O)NC4=O)C7)CC3)cc2F)N1CC(F)F (stereo partly drawn) [Compound B28, 3-((S)-3-(2-(4-(4-((6S,8R)-7-(2,2-difluoroethyl)-8-methyl-6,7,8,9-tetrahydro-3H-pyrazolo[4,3-f]isoquinolin-6-yl)-3,5-difluorophenyl)piperidin-1-yl)-2-oxoethyl)-8-oxo-1,2,3,4,4a,5,8,10-octahydro-9H-pyrazino[1′,2′:4,5][1,4]oxazino[2,3-f]isoindol-9-yl)piperidine-2,6-dione] | < 1
3 | < 10 | C[C@@H]1Cc2c(ccc3[nH]ncc23)[C@@H](c2c(F)cc(N3CC4(CCN(C(=O)CN5CCN6c7cc8c(cc7OC[C@@H]6C5)C(=O)N(C5CCC(=O)NC5=O)C8)CC4)C3)cc2F)N1CC(F)F (stereo partly drawn) [Compound B22, 3-((S)-3-(2-(2-(4-((6S,8R)-7-(2,2-difluoroethyl)-8-methyl-6,7,8,9-tetrahydro-3H-pyrazolo[4,3-f]isoquinolin-6-yl)-3,5-difluorophenyl)-2,7-diazaspiro[3.5]nonan-7-yl)-2-oxoethyl)-8-oxo-1,2,3,4,4a,5,8,10-octahydro-9H-pyrazino[1′,2′:4,5][1,4]oxazino[2,3-f]isoindol-9-yl)piperidine-2,6-dione] | < 1
4 | < 10 | COc1cc(N2CCC3(CC2)CC(CN2CCN4c5cc6c(cc5OC[C@@H]4C2)C(=O)N(C2CCC(=O)NC2=O)C6)C3)ccc1[C@@H]1c2ccc3[nH]ncc3c2C[C@@H](C)N1CC(F)F (stereo partly drawn) [Compound B54, 3-((S)-3-((7-(4-((6S,8R)-7-(2,2-difluoroethyl)-8-methyl-6,7,8,9-tetrahydro-3H-pyrazolo[4,3-f]isoquinolin-6-yl)-3-methoxyphenyl)-7-azaspiro[3.5]nonan-2-yl)methyl)-8-oxo-1,2,3,4,4a,5,8,10-octahydro-9H-pyrazino[1′,2′:4,5][1,4]oxazino[2,3-f]isoindol-9-yl)piperidine-2,6-dione] | 1 to 10
5 | < 10 | COc1cc(N2CCC3(CC2)CC(CN2CCN4c5cc6c(cc5OC[C@@H]4C2)C(=O)N(C2CCC(=O)NC2=O)C6)CO3)ccc1[C@@H]1c2ccc3[nH]ncc3c2C[C@@H](C)N1CC(F)F (stereo partly drawn) [Compound B79, 3-((4aS)-3-((8-(4-((6S,8R)-7-(2,2-difluoroethyl)-8-methyl-6,7,8,9-tetrahydro-3H-pyrazolo[4,3-f]isoquinolin-6-yl)-3-methoxyphenyl)-1-oxa-8-azaspiro[4.5]decan-3-yl)methyl)-8-oxo-1,2,3,4,4a,5,8,10-octahydro-9H-pyrazino[1′,2′:4,5][1,4]oxazino[2,3-f]isoindol-9-yl)piperidine-2,6-dione] | < 1
6 | < 10 | C[C@@H]1Cc2c(ccc3[nH]ncc23)[C@@H](c2ccc(N3CC4(CCC(CN5CCN6c7ccc8c(c7OC[C@H]6C5)CN(C5CCC(=O)NC5=O)C8=O)CC4)C3)cn2)N1CC(F)(F)F (stereo partly drawn) [Compound B108, 3-((R)-7-((2-(6-((6S,8R)-8-methyl-7-(2,2,2-trifluoroethyl)-6,7,8,9-tetrahydro-3H-pyrazolo[4,3-f]isoquinolin-6-yl)pyridin-3-yl)-2-azaspiro[3.5]nonan-7-yl)methyl)-1-oxo-1,3,5,5a,6,7,8,9-octahydro-2H-pyrazino[1′,2′:4,5][1,4]oxazino[2,3-e]isoindol-2-yl)piperidine-2,6-dione] | < 1
7 | < 10 | C[C@@H]1Cc2c(ccc3[nH]ncc23)[C@@H](c2c(F)cc(N3CCN(CC(=O)N4CCN5c6cc7c(cc6OC[C@@H]5C4)C(=O)N(C4CCC(=O)NC4=O)C7)CC3)cc2F)N1CC(F)F (stereo partly drawn) [Compound B32, 3-((S)-3-(2-(4-(4-((6S,8R)-7-(2,2-difluoroethyl)-8-methyl-6,7,8,9-tetrahydro-3H-pyrazolo[4,3-f]isoquinolin-6-yl)-3,5-difluorophenyl)pipcrazin-1-yl)acetyl)-8-oxo-1,2,3,4,4a,5,8,10-octahydro-9H-pyrazino[1′,2′:4,5][1,4]oxazino[2,3-f]isoindol-9-yl)piperidine-2,6-dione] | < 1

Row | Structure (SMILES) | DC50 (ER) [nM] | IC50 [1] [nM]
8 | C[C@@H]1Cc2c(ccc3[nH]ncc23)[C@@H](c2ccc(N3CC4(CCC(CN5CCC6(CCOc7c6ccc6c7CN(C7CCC(=O)NC7=O)C6=O)CC5)CC4)C3)cn2)N1CC(F)(F)F (stereo partly drawn) [Compound B58, 3-(1-((2-(6-((6S,8R)-8-methyl-7-(2,2,2-trifluoroethyl)-6,7,8,9-tetrahydro-3H-pyrazolo[4,3-f]isoquinolin-6-yl)pyridin-3-yl)-2-azaspiro[3.5]nonan-7-yl)methyl)-7′-oxo-2′,3′,7′,9′-tetrahydro-8′H-spiro[piperidine-4,4′-pyrano[2,3-e]isoindol]-8′-yl)piperidine-2,6-dione] | > 100 | < 1
9 | C[C@@H]1Cc2c(ccc3[nH]ncc23)[C@@H](c2ccc(N3CCC(CN4CCC5(CC4)COc4c5ccc5c4CN(C4CCC(=O)NC4=O)C5=O)CC3)cn2)N1CC(F)(F)F (stereo partly drawn) [Compound B62, 3-(1′-((1-(6-((6S,8R)-8-methyl-7-(2,2,2-trifluoroethyl)-6,7,8,9-tetrahydro-3H-pyrazolo[4,3-f]isoquinolin-6-yl)pyridin-3-yl)piperidin-4-yl)methyl)-6-oxo-6,8-dihydro-2H,7H-spiro[furo[2,3-e]isoindole-3,4′-piperidin]-7-yl)piperidine-2,6-dione] | > 100 | < 1
10 | C[C@@H]1Cc2c(ccc3[nH]ncc23)[C@@H](c2c(F)cc(N3CCC(CN4CCC5(CC4)COc4c5ccc5c4CN(C4CCC(=O)NC4=O)C5=O)CC3)cc2F)N1CC(F)F (stereo partly drawn) [Compound B114, 3-(1′-((1-(4-((6S,8R)-7-(2,2-difluoroethyl)-8-methyl-6,7,8,9-tetrahydro-3H-pyrazolo[4,3-f]isoquinolin-6-yl)-3,5-difluorophenyl)piperidin-4-yl)methyl)-6-oxo-6,8-dihydro-2H,7H-spiro[furo[2,3-e]isoindole-3,4′-piperidin]-7-yl)piperidine-2,6-dione] | > 100 | < 1
11 | C[C@@H]1Cc2c(ccc3[nH]ncc23)[C@@H](c2cnc(N3CCC4(CCC(CN5CCC6(CC5)COc5c6ccc6c5CN([C@H]5CCC(=O)NC5=O)C6=O)CO4)CC3)nc2)N1CC(F)(F)F (stereo partly drawn) [Compound B126, (3S)-3-(1′-((9-(5-((6S,8R)-8-methyl-7-(2,2,2-trifluoroethyl)-6,7,8,9-tetrahydro-3H-pyrazolo[4,3-f]isoquinolin-6-yl)pyrimidin-2-yl)-1-oxa-9-azaspiro[5.5]undecan-3-yl)methyl)-6-oxo-6,8-dihydro-2H,7H-spiro[furo [2,3-e]isoindole-3,4′-piperidin]-7-yl)piperidine-2,6-dione] | < 10 | < 1
12 | C[C@@H]1Cc2c(ccc3[nH]ncc23)[C@@H](c2ccc(N3CC4(CCN(C(=O)CN5CCC6(CC5)COc5c6ccc6c5CN(C5CCC(=O)NC5=O)C6=O)CC4)C3)cn2)N1CC(F)(F)F (stereo partly drawn) [Compound B64, 3-(1′-(2-(2-(6-((6S,8R)-8-methyl-7-(2,2,2-trifluoroethyl)-6,7,8,9-tetrahydro-3H-pyrazolo[4,3-f]isoquinolin-6-yl)pyridin-3-yl)-2,7-diazaspiro[3.5]nonan-7-yl)-2-oxoethyl)-6-oxo-6,8-dihydro-2H,7H-spiro[furo[2,3-e]isoindole-3,4′-piperidin]-7-yl)piperidine-2,6-dione] | < 10 | < 1
13 | C[C@@H]1Cc2c(ccc3[nH]ncc23)[C@@H](c2ccc(N3CCC4(CCC(CN5CCC6(CC5)COc5c6ccc6c5CN([C@H]5CCC(=O)NC5=O)C6=O)CO4)CC3)nn2)N1CC(F)(F)F (stereo partly drawn) [Compound B128, (3S)-3-(1′-((9-(6-((6S,8R)-8-methyl-7-(2,2,2-trifluoroethyl)-6,7,8,9-tetrahydro-3H-pyrazolo[4,3-f]isoquinolin-6-yl)pyridazin-3-yl)-1-oxa-9-azaspiro[5.5]undecan-3-yl)methyl)-6-oxo-6,8-dihydro-2H,7H-spiro[furo[2,3-e]isoindole-3,4′-piperidin]-7-yl)piperidine-2,6-dione] | < 10 | < 1
